The nature of this data set: Human HepG2 cell viability assay in 384 well format. Also on record: dose 125 nL, time 70.5 hour; cytotoxicity at 70.5 h: concentration not given beside the values. It is filed as toxicity, cell-based. The settings on record: HepG2 cells, read-out: Inhibition.

The record followed here is ChEMBL document CHEMBL3507680, “University of Dundee, Gates Library screen for HepG2 cell viability”.

Molecules are shown by their SMILES.

On to `Cc1cc(=O)[nH]c(-n2nc(C)c(CCC(=O)NCC(C)C)c2C)n1`, for which the cytotoxicity at 70.5 h is -4.48%. `Cc1nnc(NC(=O)c2c3c(nn2C2CCS(=O)(=O)C2)CCC3)s1` (stereo not drawn): the cytotoxicity at 70.5 h is -4.4%. Regarding `CCc1nnc(NC(=O)c2c3c(nn2C2CCS(=O)(=O)C2)CCC3)s1` (stereo not drawn), the cytotoxicity at 70.5 h is -6.09%. Regarding `O=S(=O)(NCC1(c2cccs2)CCOCC1)c1ccc2c(c1)OCCO2`, the cytotoxicity at 70.5 h is 12%.

For `COc1cccc(NC(=O)Nc2ccc3c(c2)CC(=O)N3)c1`, the cytotoxicity at 70.5 h is -16.9%. As for `O=S(=O)(c1cccnc1)N1CCN(Cc2nc(-c3cccs3)cs2)CC1`, the cytotoxicity at 70.5 h was -14.7%. For `CN(C)S(=O)(=O)NCCn1nc(-c2ccccc2)n(C)c1=O`, the cytotoxicity at 70.5 h was -4.25%.

`COCCc1nnc(NC(=O)CCCc2ccccc2)o1`: the cytotoxicity at 70.5 h is -6.03%.

As to `Cc1noc(C)c1CCC(=O)NCCc1cccs1`, the cytotoxicity at 70.5 h was -7.09%.

Turning to `Cc1nccn1CC1CCN(C(=O)c2cccs2)CC1`, the cytotoxicity at 70.5 h was -17.8%. Regarding `CN(C)S(=O)(=O)N1CCC(Cn2cccn2)CC1`, the cytotoxicity at 70.5 h was -7.21%. Under `CCOc1ccc(S(=O)(=O)N(CCOC)Cc2ccncc2)cc1F` stands 35.3%.

As to `O=C(NCC(O)(c1ccco1)C1CC1)c1c(F)cccc1Cl` (stereo not drawn), the cytotoxicity at 70.5 h was -0.808%.

For `Cn1cccc1C(O)CNC(=O)c1ccc(F)c(F)c1` (stereo not drawn), the cytotoxicity at 70.5 h is -13.5%.

In the case of `Cn1cccc1C(O)CNC(=O)c1ccc(C(F)(F)F)cc1` (stereo not drawn), the cytotoxicity at 70.5 h was -20.6%. As to `Cn1cccc1C(O)CNS(=O)(=O)Cc1ccccc1` (stereo not drawn), the cytotoxicity at 70.5 h stood at 12.5%. Take `Cn1cccc1C(O)CNS(=O)(=O)c1ccccc1F` (stereo not drawn): the cytotoxicity at 70.5 h is 3.03%. For `Cc1cc(F)ccc1S(=O)(=O)NCC(O)c1cccn1C` (stereo not drawn) the value was 0.803%; for `Cn1cccc1C(O)CNS(=O)(=O)c1ccccc1Br` (stereo not drawn), -0.453%.

`COc1ccc(CC(=O)NCC(O)c2sccc2C)cc1OC` (stereo not drawn): the cytotoxicity at 70.5 h was -6.12%. As to `Cc1ccsc1C(O)CNS(=O)(=O)Cc1ccc(F)cc1` (stereo not drawn), the cytotoxicity at 70.5 h was -10.1%. As for `COc1ccc(F)cc1S(=O)(=O)NCC(O)c1sccc1C` (stereo not drawn), the cytotoxicity at 70.5 h was -2.63%.

On to `COc1ccc(S(=O)(=O)NCC(O)c2sccc2C)cc1Cl` (stereo not drawn), for which the cytotoxicity at 70.5 h worked out at 0.182%. Consider `O=C(NCc1cccs1)NCC(O)(c1cccs1)C1CC1` (stereo not drawn), for which the cytotoxicity at 70.5 h is -12.2%.

For the compound `O=C(NCc1ccc(F)cc1)NCC(O)(c1cccs1)C1CC1` (stereo not drawn), the cytotoxicity at 70.5 h is -8.72%. On to `COc1ccc(CNC(=O)NCC(O)(c2cccs2)C2CC2)cc1` (stereo not drawn), for which the cytotoxicity at 70.5 h is -6.74%.

For the compound `CC(O)(CCc1ccccc1)CNC(=O)c1ccsc1` (stereo not drawn), the cytotoxicity at 70.5 h was -2.72%. On to `CC(O)(CCc1ccccc1)CNC(=O)c1ccc(F)cc1` (stereo not drawn), for which the cytotoxicity at 70.5 h was found to be 14.3%. Take `O=C(NCC1(O)CCCC1)c1ccc2nsnc2c1`: the cytotoxicity at 70.5 h was -20.9%. `O=C(NCC(O)c1cccs1)c1ccco1` (stereo not drawn): the cytotoxicity at 70.5 h is -10.6%. As for `CN(C)c1cccc(C(=O)NCC(O)c2cccs2)c1` (stereo not drawn), the cytotoxicity at 70.5 h was 20.3%. In the case of `CC(=O)c1cccc(S(=O)(=O)NCC(C)(O)c2cccs2)c1` (stereo not drawn), the cytotoxicity at 70.5 h is -7.85%.

As to `COc1ccc(S(=O)(=O)NCC(C)(O)c2cccs2)cc1Cl` (stereo not drawn), the cytotoxicity at 70.5 h is -10.5%. As to `Cc1nc(C)c(CC(=O)NCc2ccccc2F)s1`, the cytotoxicity at 70.5 h was -11.1%. With `COC1CCN(C(=O)Cn2ccc3ccccc32)CC1`, the cytotoxicity at 70.5 h is -3.16%.

With `O=C(Cn1cccn1)Nc1ccc(N2CCOCC2)cc1`, the cytotoxicity at 70.5 h was found to be 0.51%. Regarding `O=C(CNC(=O)c1c[nH]c2ccccc12)NCCCn1ccnc1`, the cytotoxicity at 70.5 h was -5.85%. For `Cc1cc(NC(=O)Cn2cnc(-c3cccs3)cc2=O)no1`, the cytotoxicity at 70.5 h is -2.01%. Consider `O=C(NCC1(CO)CC1)c1ccccc1F`, for which the cytotoxicity at 70.5 h is -8.21%. Under `COc1nn(C)cc1C(=O)NCC(=O)NCc1ccccn1` stands -11%; under `COC1COC2(CCN(C(=O)c3ncccn3)CC2)C1` (stereo not drawn), 14.8%; under `O=C(NCc1ccccc1)N1Cc2nc(COCC3CC3)oc2C1`, 4.6%.

As for `O=C([C@@H]1CC[C@@H]2[C@@H](CCN2c2ncccn2)O1)N1CCCO1`, the cytotoxicity at 70.5 h worked out at 11.8%. For the compound `CC(=O)N1CC2(CCN(C(=O)C3CC3)CC2)c2cc(C)ccc21`, the cytotoxicity at 70.5 h came to 6.48%. `CN(Cc1cccnc1)C1CC2(CCN(C(=O)c3ccnnc3)CC2)C1`: the cytotoxicity at 70.5 h was -13.1%. As for `Cc1ccoc1C(=O)N1CC[C@@]2(C[C@H](NS(C)(=O)=O)CCO2)C1`, the cytotoxicity at 70.5 h is -18.1%.

Consider `Cc1ccc(N2CCC3(CCN(Cc4ccccn4)CC3)CC2)nn1`, for which the cytotoxicity at 70.5 h was -11.7%. For `CCC(=O)N1CCC2(CC1)CN(C(C)=O)c1ccc(C)cc12` the value was -9.39%; for `O=S(=O)(c1cccs1)N1CCN2C[C@H](OCC3CC3)C[C@H]2C1`, -3.74%; for `CC(C)C(=O)N1CCN(S(=O)(=O)C2CC2)CC2(CC(=O)N(C)C2)C1` (stereo not drawn), -6.71%. For `Cc1ccc(N2CCC3(CCN(Cc4nccs4)CC3)CC2)nn1` the value was -7.07%; for `CC(C)C(=O)N1CCN(S(C)(=O)=O)CC2(CC(=O)N(C)C2)C1` (stereo not drawn), -7.11%. Under `CCS(=O)(=O)N1CCN(C(=O)NC(C)C)CC2(CC(=O)N(C)C2)C1` (stereo not drawn) stands -7.37%. Take `O=C(c1ccco1)N1CC[C@H]2[C@H]1CCN2S(=O)(=O)C1CC1`: the cytotoxicity at 70.5 h is -8.4%. On to `Cc1ccc(CN2CCC3(CCN(Cc4ccncc4)CC3)CC2)cc1`, for which the cytotoxicity at 70.5 h is -3.02%. For `CCN1CCC2(COCc3c(C)nc(N4CCOCC4)nc32)C1` (stereo not drawn) the value was 11.1%; for `CCS(=O)(=O)N1Cc2nccn2CC(CN2CCCC2)C1` (stereo not drawn), 4.02%; for `O=C1[C@H]2CN(C3CCOCC3)C[C@H]2CN1Cc1cccnc1`, 3.06%. Turning to `COc1nn(C)c2c1CCCN(S(=O)(=O)c1cccc(C)c1)C2`, the cytotoxicity at 70.5 h is -4.74%. `COc1nn(C)c2c1CCCN(S(=O)(=O)c1ccccc1F)C2`: the cytotoxicity at 70.5 h is -1.52%. Take `c1c(CN2CCCCC2)nc2n1CCN(CC1CC1)C2`: the cytotoxicity at 70.5 h worked out at 0.696%. `CC(C)CN1CCNC(=O)C12CCN(C(=O)c1ccccn1)CC2`: the cytotoxicity at 70.5 h was determined as 9.35%. As for `CN(C)C(=O)N1CCN(C(=O)c2ccc(Cl)cc2)CC2(CNC(=O)C2)C1` (stereo not drawn), the cytotoxicity at 70.5 h worked out at 11%. For `CNC(=O)N1CCc2nc(C(=O)Nc3cccnc3)sc2CC1`, the cytotoxicity at 70.5 h is -3.13%. On to `CCCc1nnsc1C(=O)N1CCN(CC(O)C2CC2)CC1` (stereo not drawn), for which the cytotoxicity at 70.5 h came out at 14.6%. `CCCc1nnsc1C(=O)N1CCN(CC(O)c2ccco2)CC1` (stereo not drawn): the cytotoxicity at 70.5 h is -0.0412%. Regarding `COc1ccc(CNC(=O)N2CCN(CC(O)C3CC3)CC2)cc1` (stereo not drawn), the cytotoxicity at 70.5 h is -3%. `O=C(Nc1cccc(F)c1)C1=NOC2(CCNCC2)C1`: the cytotoxicity at 70.5 h is -4.38%.

As to `O=C(CN1CCN(CC(O)C2CC2)CC1)NCc1ccccc1Cl` (stereo not drawn), the cytotoxicity at 70.5 h is -10.5%.

`OC(CN1CCN(Cc2cccc(F)c2)CC1)C1CC1` (stereo not drawn): the cytotoxicity at 70.5 h is -11.3%.

Regarding `OC(CN1CCN(Cc2cccnc2)CC1)c1cccs1` (stereo not drawn), the cytotoxicity at 70.5 h is -3.13%.

As to `CCO[C@@H]1C[C@H]2CN(S(=O)(=O)c3cccs3)CCN2C1`, the cytotoxicity at 70.5 h was -4.39%. `O=C1COC2(CCN(c3ccccn3)CC2)CN1`: the cytotoxicity at 70.5 h was -19.6%.

As for `COc1ncnc2c1CCN(Cc1nccs1)CC2`, the cytotoxicity at 70.5 h is -8.56%.

In the case of `O=C(C[C@@H]1COC[C@H]2CN(CC3CC3)C[C@@H]12)N1CCCCO1`, the cytotoxicity at 70.5 h was 5.39%. With `Cc1ccnc(OC[C@@]23CCO[C@@H]2CCN(c2ncc(F)cn2)C3)n1`, the cytotoxicity at 70.5 h was -6.92%. For `Cc1cc(CN2C[C@H]3CCC[C@@]3(COCc3csc(C)n3)C2)no1`, the cytotoxicity at 70.5 h was -9.15%. As for `Cc1nc(COC[C@@]23CCC[C@@H]2CN(CC2CCOCC2)C3)cs1`, the cytotoxicity at 70.5 h is -9.04%. For `O=C(c1cocn1)N1CCC2(CC1)COC(COCc1ccccn1)C2` (stereo not drawn) the value was 0.202%. `c1ncn(Cc2cn3c(n2)CN(CC2CCCC2)CC3)n1`: the cytotoxicity at 70.5 h is 1.84%.

As to `CN1CCS(=O)(=O)[C@@H]2CCN(C(=O)c3ccccc3)CC[C@@H]21`, the cytotoxicity at 70.5 h is -9.02%. Under `CC(C)OCc1nn(C)c2c1CCN(Cc1ccco1)C2` stands -7.18%; under `CCCS(=O)(=O)N1Cc2nccn2CC(CN2CCCC2)C1` (stereo not drawn), -4.76%. As to `COc1ccc(CC(=O)N2CC[C@@H]3[C@H](CC2)N(C)CCS3(=O)=O)cc1`, the cytotoxicity at 70.5 h is -8.6%.

For `CN(C)C(=O)[C@H]1C[C@H]2OCC[C@H]2N(CCOc2ccc(Cl)cc2)C1`, the cytotoxicity at 70.5 h was -3.17%. For `CN(C)[C@@H]1CCN(C(=O)C2CCOCC2)[C@H]1Cc1ccncc1`, the cytotoxicity at 70.5 h came to 6.4%.

Consider `CN(C)C(=O)CN1CC[C@H]2[C@H]1CCN2c1ncccn1`, for which the cytotoxicity at 70.5 h is -20.8%. Regarding `CCN(C)c1ncnc2c1CCN(Cc1nccs1)CC2`, the cytotoxicity at 70.5 h was determined as 6.96%. For `Cc1ccc(CN2CCC3(CC2)CCN(Cc2ccoc2)CC3)cc1` the value was -5.46%; for `Cc1ccc(CN2CCC3(CC2)CCN(Cc2ccco2)CC3)cc1`, -6.1%. As to `CN1CCN(C[C@H]2OC[C@@H]3CCN(C(=O)c4cnccn4)C[C@@H]32)CC1`, the cytotoxicity at 70.5 h was -2.22%. As to `CCOCC1CN(CCOc2ccc(Cl)cc2)Cc2c1cnn2C` (stereo not drawn), the cytotoxicity at 70.5 h is 2.89%.

Turning to `Cc1ccc(CN2C[C@H](N3CCOCC3)[C@@H]3OCCC[C@@H]32)o1`, the cytotoxicity at 70.5 h is -0.951%. For the compound `c1c(CN2CCCC2)nc2n1CCN(CC1CC1)C2`, the cytotoxicity at 70.5 h is -4.19%. Take `Cc1cc(CN2C[C@H](N3CCOCC3)[C@@H]3OCCC[C@@H]32)oc1C`: the cytotoxicity at 70.5 h was -7.89%. For `c1snnc1CN1C[C@H]2CCC[C@@H](CN3CCOCC3)[C@H]2C1`, the cytotoxicity at 70.5 h was -7.77%. With `CN(Cc1ccncc1)C1COC2(CCN(c3ncc(F)cn3)CC2)C1` (stereo not drawn), the cytotoxicity at 70.5 h was -1.66%. Regarding `c1cnc(N2CC[C@@H]3CN(Cc4ccncc4)CCO[C@@H]3C2)nc1`, the cytotoxicity at 70.5 h was -2.03%.
